{
  "source": "patent US20070281996A1",
  "about": "“Creatine prodrugs, compositions and uses thereof” (XenoPort, Inc., priority 2006, published 2007)",
  "origin": "cited, not measured here",
  "key": {"[1]": {"details": "healthy volunteers, oral creatine administration (Dechent et al.)"}, "[2]": {"details": "following oral creatine supplementation"}},
  "data": [
    {"smiles": "CN(CC(=O)O)C(=N)N", "note": "[creatine, Creatine]", "values": [
      {"measurement": "increase of cerebral creatine phosphate", "setting": "[1]", "value": "about 10%"},
      {"measurement": "duration of increase in tissue creatine phosphate levels", "setting": "[2]", "value": "> 14", "unit": "days"}
    ]}
  ]
}
